Assay results from ChEMBL document CHEMBL1141367, “Substituted 2-[(4-aminomethyl)phenoxy]-2-methylpropionic acid PPARalpha agonists. 1. Discovery of a novel series of potent HDLc raising agents” (J Med Chem, 2007).

Experiments:
[1] = Volume of distribution in Beagle dog at 2 mg/kg, iv; type: ADME, organism-based, Canis lupus familiaris; design: dose 2 mg/kg, route intravenous; conditions: in vivo, read-out: Vdss
[2] = Plasma clearance in Beagle dog at 2 mg/kg, iv; type: ADME, organism-based, Canis lupus familiaris; design: dose 2 mg/kg, route intravenous
Canis familiaris = test: Plasma concentration in Beagle dog at 3 mg/kg, po; type: ADME, organism-based, Canis lupus familiaris; design: dose 3 mg/kg, route oral; conditions: in vivo
[3] = Bioavailability in Beagle dog at 3 mg/kg, po; type: ADME, organism-based, Canis lupus familiaris; conditions: in vivo
Mus musculus [4] = test: Decrease in VLDL cholesterol in human Apo-A-I transgenic C57BL/6 mouse at 1 mg/kg, po; type: functional; design: scale not given: the % may be the effect or the level left
Mus musculus [5] = test: Decrease in VLDL cholesterol in human Apo-A-I transgenic C57BL/6 mouse at 0.5 mg/kg, po; type: functional; design: scale not given: the % may be the effect or the level left
Mus musculus [6] = test: Decrease in LDL cholesterol level in human Apo-A-I transgenic C57BL/6 mouse at 0.5 mg/kg, po; type: functional; design: scale not given: the % may be the effect or the level left
Mus musculus [7] = test: Decrease in LDL cholesterol level in human Apo-A-I transgenic C57BL/6 mouse at 5 mg/kg, po; type: functional; design: scale not given: the % may be the effect or the level left
Mus musculus [8] = test: Decrease in plasma TG level in human Apo-A-I transgenic C57BL/6 mouse at 1 mg/kg, po; type: functional; design: scale not given: the % may be the effect or the level left
[9] = Plasma clearance in Wistar rat at 2.7 mg/kg, iv; type: ADME, organism-based; design: dose 2.7 mg/kg, route intravenous
[10] = Half life in Wistar rat plasma at 2.7 mg/kg, iv; type: ADME, organism-based; design: dose 2.7 mg/kg, route intravenous
[11] = target: T1, Peroxisome proliferator-activated receptor delta (Mus musculus, UniProt P35396)
T1 sequence (P35396 whole entry): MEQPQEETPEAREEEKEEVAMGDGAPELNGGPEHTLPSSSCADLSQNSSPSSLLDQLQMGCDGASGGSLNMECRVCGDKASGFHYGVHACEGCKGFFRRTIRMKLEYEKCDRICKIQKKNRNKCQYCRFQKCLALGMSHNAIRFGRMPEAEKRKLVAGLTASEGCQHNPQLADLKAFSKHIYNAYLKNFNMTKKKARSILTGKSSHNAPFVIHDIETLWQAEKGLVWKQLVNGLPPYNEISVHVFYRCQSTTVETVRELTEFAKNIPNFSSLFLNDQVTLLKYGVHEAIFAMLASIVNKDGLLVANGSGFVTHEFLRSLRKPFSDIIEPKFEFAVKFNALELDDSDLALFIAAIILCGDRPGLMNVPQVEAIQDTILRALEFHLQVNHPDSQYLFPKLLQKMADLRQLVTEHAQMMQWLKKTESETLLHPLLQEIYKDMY
Description: Agonist potency at mouse PPARdelta

[12] = target: T2, Peroxisome proliferator-activated receptor delta (Homo sapiens, UniProt Q03181)
T2 sequence (Q03181 whole entry): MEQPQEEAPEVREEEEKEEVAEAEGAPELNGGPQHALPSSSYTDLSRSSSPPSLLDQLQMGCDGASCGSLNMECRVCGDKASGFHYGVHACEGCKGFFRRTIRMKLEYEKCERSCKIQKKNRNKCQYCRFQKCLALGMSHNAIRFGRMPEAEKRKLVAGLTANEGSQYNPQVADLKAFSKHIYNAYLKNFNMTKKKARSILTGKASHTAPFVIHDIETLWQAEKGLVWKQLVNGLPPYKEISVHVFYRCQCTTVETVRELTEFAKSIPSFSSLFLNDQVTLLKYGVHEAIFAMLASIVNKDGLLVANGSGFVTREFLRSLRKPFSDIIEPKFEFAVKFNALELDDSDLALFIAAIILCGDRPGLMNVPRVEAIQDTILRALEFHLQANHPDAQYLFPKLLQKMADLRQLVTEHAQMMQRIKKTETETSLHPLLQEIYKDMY
Description: Agonist potency at PPARdelta in CV1 cells by cell based transient transfection assay

Cc1nc(-c2ccc(C(F)(F)F)cc2)sc1C(=O)NCc1ccc(OC(C)(C)C(=O)O)cc1 [GW590735]
Vd [1]: 2.8 L/kg
clearance [2]: 13 mL/min/kg
Cp (Canis familiaris): 1449 ng/mL
bioavailability [3]: 85%
Activity (Mus musculus [4]): 63%
Activity (Mus musculus [5]): 48%
Activity (Mus musculus [6]): 61%
Activity (Mus musculus [7]): 69%
Activity (Mus musculus [8]): 48%
clearance [9]: 5 mL/min/kg
half-life [10]: 2.4 h
EC50 [11]: 1000 nM
EC50 [12]: 2830 nM
